Reference: patent US11370847B2, “Single domain antibodies directed against intracellular antigens” (Singh Biotechnology, LLC, priority 2014, dated 2022)
Values joined by “and” are separate entries in the source; they are usually repeats but may differ in a detail not shown here. Equal entries are not always repeated. Numbered stars: 1 amine (or outer) side, 2 acyl side, 3 side chain; on linkers, the order of the positions; unused ones are H or OH. Bridge positions count the residues as written; N and C are the ends. Square brackets hold non-standard residues; d marks the D form. Peptide text beside a SMILES is read from it. I, II: the chains in the order shown. Actinocin(9to1) = Cc1c2oc3c(C)ccc(C(=O)[*:1])c3nc-2c(C(=O)[*:2])c(N)c1=O; NMeV = CN[C@H](C(=O)O)C(C)C; Sar = CNCC(=O)O

Key:
TNF-α = molecular target: T1, TNF-α (Homo sapiens, UniProt P01375); assay: Inhibition of TNF-α cytotoxicity in L929 fibroblast cells (MTS); type: cell-based, mouse; conditions: Assay 2, Actinomycin D only (no TNFα), sample replicates
T1 construct: purchased Sigma-Aldrich
T1 sequence (P01375 77-233 limits assumed): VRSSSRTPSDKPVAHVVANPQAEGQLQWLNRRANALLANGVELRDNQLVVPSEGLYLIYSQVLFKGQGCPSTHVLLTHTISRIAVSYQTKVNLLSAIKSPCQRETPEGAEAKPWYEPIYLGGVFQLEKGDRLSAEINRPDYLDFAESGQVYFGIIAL

SJSA-1 xenograft [1] = assay: SJSA-1 Bone Osteosarcoma subcutaneous xenograft model
SJSA-1 xenograft [2] = conditions: mouse, in vivo
SJSA-1 cells = assay: MTT proliferation assay, SJSA-1; type: cell-based, human
[3] = SBT-100 5.0 mg/kg BID 14 days IP, Doxorubicin 7.0 mg/kg days 1, 8 and 14 IP
[4] = study day 9 post implant, IP, SBT-100 5.0 mg/kg BIDx14 and/or Doxorubicin 7.0 mg/kg days 1, 8, 14
[5] = study day 13 post implant, IP, SBT-100 5.0 mg/kg BIDx14 and/or Doxorubicin 7.0 mg/kg days 1, 8, 14
[6] = study day 16 post implant, IP, SBT-100 5.0 mg/kg BIDx14 and/or Doxorubicin 7.0 mg/kg days 1, 8, 14
[7] = study day 20 post implant, IP, SBT-100 5.0 mg/kg BIDx14 and/or Doxorubicin 7.0 mg/kg days 1, 8, 14
[8] = study day 21 post implant, IP, SBT-100 5.0 mg/kg BIDx14 and/or Doxorubicin 7.0 mg/kg days 1, 8, 14
[9] = study day 23 post implant, IP, SBT-100 5.0 mg/kg BIDx14 and/or Doxorubicin 7.0 mg/kg days 1, 8, 14
[10] = study day 27 post implant, IP, SBT-100 5.0 mg/kg BIDx14 and/or Doxorubicin 7.0 mg/kg days 1, 8, 14

With `Cc1c2oc3c(C)ccc(C(=O)N[C@@H]4C(=O)N[C@H](C(C)C)C(=O)N5CCC[C@H]5C(=O)N(C)CC(=O)N(C)[C@@H](C(C)C)C(=O)O[C@@H]4C)c3nc-2c(C(=O)N[C@@H]2C(=O)N[C@H](C(C)C)C(=O)N3CCC[C@H]3C(=O)N(C)CC(=O)N(C)[C@@H](C(C)C)C(=O)O[C@@H]2C)c(N)c1=O` [Actinomycin D] (I: T[dV]P[Sar][NMeV] / II: T[dV]P[Sar][NMeV]; ester I:1-I:C, II:1-II:C; linker I:N-II:N via Actinocin(9to1)) the “% Toxicity” value (TNF-α) was 0%.

In the case of `COc1cccc2c1C(=O)c1c(O)c3c(c(O)c1C2=O)C[C@@](O)(C(=O)CO)C[C@@H]3O[C@H]1C[C@H](N)[C@H](O)[C@H](C)O1` [Doxorubicin, reference compound], the “% T/C” value (SJSA-1 xenograft [1]; [3]) is reported as 17.91%, the “mean tumor growth inhibition at the end of the study” value (SJSA-1 xenograft [1]; [3]) is reported as 84.71% and the “mean tumor size (±S.E.) at termination” value (SJSA-1 xenograft [1]; [3]) is reported as 215.84±52.32. The “mean tumor size (±SE) at the last day of dosing” value (SJSA-1 xenograft [1]; [3]) was 118.18±11.13, the tumor doubling time (SJSA-1 xenograft [1]; control 8.22) was 13.32 and the “% Inh Mean” value (SJSA-1 xenograft [1]; [4]) was 58.36%. The “% Inh Med” value (SJSA-1 xenograft [1]; [4]) was 32.94%, the “Mean Abs (tumor measurement)” value (SJSA-1 xenograft [1]; [4]) was 16.52 mm^3 and the “Tumor Measurements, single animals” value (SJSA-1 xenograft [1]; [4]) was 23.19 mm^3 and 14.32 mm^3 and 16.69 mm^3 and 0.00 mm^3 (2×) and 46.20 mm^3. The “% Inh Mean” value (SJSA-1 xenograft [1]; [5]) was 3.16%, the “% Inh Med” value (SJSA-1 xenograft [1]; [5]) was −23.18% and the “% T/C” value (SJSA-1 xenograft [1]; [5]) was 107.14%. For the same compound, the “Mean Abs (tumor measurement)” value (SJSA-1 xenograft [1]; [5]) was 76.72 mm^3, the “Median Abs (tumor measurement)” value (SJSA-1 xenograft [1]; [5]) was 72.93 mm^3 and the “Tumor Measurements, single animals” value (SJSA-1 xenograft [1]; [5]) was 48.43 mm^3 and 20.77 mm^3 and 132.27 mm^3 and 104.16 mm^3 and 25.81 mm^3 and 132.66 mm^3 and 72.93 mm^3. The “% Inh Mean” value (SJSA-1 xenograft [1]; [6]) was 55.02%, the “% Inh Med” value (SJSA-1 xenograft [1]; [6]) was 55.11% and the “% T/C” value (SJSA-1 xenograft [1]; [6]) was 51.96%. For the same compound, the “Mean Abs (tumor measurement)” value (SJSA-1 xenograft [1]; [6]) was 78.09 mm^3, the “Median Abs (tumor measurement)” value (SJSA-1 xenograft [1]; [6]) was 73.50 mm^3 and the “Tumor Measurements, single animals” value (SJSA-1 xenograft [1]; [6]) was 102.31 mm^3 and 37.33 mm^3 and 105.65 mm^3 and 118.75 mm^3 and 57.55 mm^3 and 51.55 mm^3 and 73.50 mm^3. For the same compound, the “% Inh Mean” value (SJSA-1 xenograft [1]; [7]) was 74.31%, the “% Inh Med” value (SJSA-1 xenograft [1]; [7]) was 71.58% and the “% T/C” value (SJSA-1 xenograft [1]; [7]) was 30.35%. For the same compound, the “Mean Abs (tumor measurement)” value (SJSA-1 xenograft [1]; [7]) was 79.33 mm^3, the “Median Abs (tumor measurement)” value (SJSA-1 xenograft [1]; [7]) was 72.16 mm^3 and the “Tumor Measurements, single animals” value (SJSA-1 xenograft [1]; [7]) was 61.44 mm^3 and 68.71 mm^3 and 114.42 mm^3 and 93.72 mm^3 and 75.00 mm^3 and 69.85 mm^3 and 72.16 mm^3. For the same compound, the “% Inh Mean” value (SJSA-1 xenograft [1]; [8]) was 70.41%, the “% Inh Med” value (SJSA-1 xenograft [1]; [8]) was 61.77% and the “% T/C” value (SJSA-1 xenograft [1]; [8]) was 36.16%. The “Mean Abs (tumor measurement)” value (SJSA-1 xenograft [1]; [8]) was 118.18 mm^3, the “Tumor Measurements, single animals” value (SJSA-1 xenograft [1]; [8]) was 85.16 mm^3 and 115.50 mm^3 and 133.21 mm^3 and 119.94 mm^3 and 160.89 mm^3 and 94.40 mm^3 and the “% Inh Mean” value (SJSA-1 xenograft [1]; [9]) was 72.79%. For the same compound, the “% Inh Med” value (SJSA-1 xenograft [1]; [9]) was 71.86%, the “% T/C” value (SJSA-1 xenograft [1]; [9]) was 30.43% and the “Mean Abs (tumor measurement)” value (SJSA-1 xenograft [1]; [9]) was 141.94 mm^3. The “Median Abs (tumor measurement)” value (SJSA-1 xenograft [1]; [9]) was 129.81 mm^3, the “Tumor Measurements, single animals” value (SJSA-1 xenograft [1]; [9]) was 105.84 mm^3 and 142.33 mm^3 and 217.29 mm^3 and 151.94 mm^3 and 116.95 mm^3 and 117.30 mm^3 and the “% Inh Mean” value (SJSA-1 xenograft [1]; [10]) was 84.71%. The “% Inh Med” value (SJSA-1 xenograft [1]; [10]) was 81.05%, the “% T/C” value (SJSA-1 xenograft [1]; [10]) was 17.91% and the “Mean Abs (tumor measurement)” value (SJSA-1 xenograft [1]; [10]) was 215.84 mm^3. For the same compound, the “Median Abs (tumor measurement)” value (SJSA-1 xenograft [1]; [10]) was 215.84 mm^3, the “Tumor Measurements, single animals” value (SJSA-1 xenograft [1]; [10]) was 163.53 mm^3 and 268.16 mm^3 and the “number surviving at the end of the study” value (SJSA-1 xenograft [2]; Hsd: Athymic Nude-Fox1nu, 14 days) was 2. For the same compound, the “Are the survival curves sig different?” value (SJSA-1 xenograft [2]) was “Yes”, the “inhibition of SJSA-1 cells” value (SJSA-1 cells; 72 hours, SBT-100 at 50 and 100 μg/ml, Doxorubicin at all dose levels tested) was “significant dose-dependent inhibition” and the inhibition at 0.0313 µM (SJSA-1 cells; Homo sapiens, SJSA-1, 72 h) was 28%. The inhibition at 0.0625 µM (SJSA-1 cells; Homo sapiens, SJSA-1, 72 h) was 29%, the inhibition at 0.313 µM (SJSA-1 cells; Homo sapiens, SJSA-1, 72 h) was 31% and the inhibition at 0.5 µM (SJSA-1 cells; Homo sapiens, SJSA-1, 72 h) was 36%. The inhibition at 0.625 µM (SJSA-1 cells; Homo sapiens, SJSA-1, 72 h) was 29%, the inhibition at 1 µM (SJSA-1 cells; Homo sapiens, SJSA-1, 72 h) was 49% and the inhibition at 5 µM (SJSA-1 cells; Homo sapiens, SJSA-1, 72 h) was 52%. The inhibition at 10 µM (SJSA-1 cells; Homo sapiens, SJSA-1, 72 h) was 45%, the “Mean Abs (±SD)” value (SJSA-1 cells; Table 72 (experiment 5a), Doxorubicin 0.0313 μM alone, 72 hours) was 0.281 ± 0.031 and the “Mean Abs (±SD)” value (SJSA-1 cells; Table 72 (experiment 5a), Doxorubicin 0.0625 μM alone, 72 hours) was 0.277 ± 0.035. The “Mean Abs (±SD)” value (SJSA-1 cells; Table 72 (experiment 5a), Doxorubicin 0.5 μM alone, 72 hours) was 0.248 ± 0.038, the “Mean Abs (±SD)” value (SJSA-1 cells; Table 72 (experiment 5a), Doxorubicin 1 μM alone, 72 hours) was 0.197 ± 0.012 and the “Mean Abs (±SD)” value (SJSA-1 cells; Table 73 (Experiment 2, 5b), Doxorubicin 0.313 μM alone, 72 hours) was 0.519 ± 0.004. For the same compound, the “Mean Abs (±SD)” value (SJSA-1 cells; Table 73 (Experiment 2, 5b), Doxorubicin 0.625 μM alone, 72 hours) was 0.530 ± 0.024, the “Mean Abs (±SD)” value (SJSA-1 cells; Table 73 (Experiment 2, 5b), Doxorubicin 5.00 μM alone, 72 hours) was 0.358 ± 0.003 and the “Mean Abs (±SD)” value (SJSA-1 cells; Table 73 (Experiment 2, 5b), Doxorubicin 10.0 μM alone, 72 hours) was 0.414 ± 0.007.
